Values joined by “and” are separate entries in the source; they are usually repeats but may differ in a detail not shown here. Equal entries are not always repeated. Where two headings read alike, the source gives them in different places. Marks after values point to notes of the source that are not given here.
Legend:
HIV-1 protease = HIV-1 protease (Human immunodeficiency virus type 1 group M subtype B, UniProt P04585); experiment: Fluorescence HIV-1 Protease Inhibitor Assay (Pandex); format: biochemical; set-up: made in house; host or cells: E. coli K12 L507/pHP10D (NRRL B-18560)
[1] = test system: Viral SN123 infected CEM cells
[2] = normalized to positive control (=1.0), * = a calculated average, read-out: Fluorescence Assay IC50 in ng/mL (converted)
[3] = value as run, 35B value of the same run in footnote or parentheses, read-out: Pandex IC50 ng/ml (converted)
[4] = normalized to positive control (=1.0), * = a calculated average
[5] = value as run, 35B value of the same run in footnote or parentheses
[6] = Human immunodeficiency virus 1, CCRF-CEM, read-out: Whole cell IC50 nM, CEM cells, values in parentheses are 35B in same assay
[7] = Human immunodeficiency virus 1, CCRF-CEM, read-out: Whole cell IC90 nM, CEM cells, values in parentheses are 35B in same assay
[8] = read-out: Whole cell IC50 nM, CEM cells, values in parentheses are 35B in same assay
[9] = read-out: Whole cell IC90 nM, CEM cells, values in parentheses are 35B in same assay

Q: Which results are given for `CC(C)(C)NC(=O)C1CC2CCCCC2CN1CC(O)C(Cc1ccccc1)NC(=O)c1cccc(O)c1F` (stereo not drawn) [Example 1, [3S-(3R*,4aR*,8aR*,2′S*,3′R*)]-2-[2′-Hydroxy-3′-phenylmethyl-4′-aza-5′-oxo-5′-(2″-fluoro-3″-hydroxyphenyl)pentyl]decahydroisoquinoline-3-N-t-butylcarboxamide]?
A: IC50 (HIV-1 protease; [2]): 1780 nM; IC50 (HIV-1 protease; [3]): 856 nM

Q: For `CC(C)(C)NC(=O)C1CC2CCCCC2CN1CC(O)C(Cc1ccccc1)NC(=O)c1c(Cl)ccc(O)c1Cl` (stereo not drawn) [Example 17, [3S-(3R*,4aR*,8aR*,2′S*,3′R*)]-2-[2′-Hydroxy-3′-phenylmethyl-4′-aza-5′-oxo-5′-(2″,6″-dichloro-3″-hydroxyphenyl)pentyl] decahydroisoquinoline-3-N-t-butylcarboxamide], which “Fluorescence Assay IC50 in ng/mL” value (HIV-1 protease; [4]) is on record?
A: Its value is 269* ng/mL.

Q: What about the “Pandex IC50 ng/ml” value (HIV-1 protease; [5]) of the same compound?
A: Its value is 346^b ng/ml.

Q: Which IC50 (HIV-1 protease; [2]) does the source give for `CCCc1c(O)cccc1C(=O)NC(Cc1ccccc1)C(O)CN1CC2CCCCC2CC1C(=O)NC(C)(C)C` (stereo not drawn) [Example 22, [3S-(3R*,4aR*,8aR*,2′S*,3′R*)]-2-[2′-Hydroxy-3′-phenylmethyl-4′-aza-5′-oxo-5′-(2″-propyl-3″-hydroxyphenyl)pentyl] decahydroisoquinoline-3-N-t-butylcarboxamide] here?
A: The IC50 was 1.29 nM.

Q: What about the IC50 (HIV-1 protease; [3]) of the same compound?
A: The IC50 was 124 nM.

Q: And the IC50 [1, 6]?
A: The IC50 was 400 nM.

Q: And the IC90 [1, 7]?
A: Its IC90 is 798 nM.

Q: `CC(C)(C)NC(=O)C1CC2CCCCC2CN1CC(O)C(Cc1ccccc1)NC(=O)c1ccccc1C(F)(F)F` (stereo not drawn) [Example 15, [3S-(3R*,4aR*,8aR*,2′S*,3′R*)]-2-[2′-Hydroxy-3′-phenylmethyl-4′-aza-5′-oxo-5′-(2″-trifluoromethylphenyl)pentyl] decahydroisoquinoline-3-N-t-butylcarboxamide] was tested. Which IC50 (HIV-1 protease; [2]) did it give?
A: Its IC50 is 657 nM.

Q: What about the IC50 (HIV-1 protease; [3]) of the same compound?
A: The IC50 was 315 nM.

Q: `CCCCc1c(O)cccc1C(=O)NC(Cc1ccccc1)C(O)CN1CC2CCCCC2CC1C(=O)NC(C)(C)C` (stereo not drawn) [Example 21, [3S-(3R*,4aR*,8aR*,2′S*,3′R*)]-2-[2′-Hydroxy-3′-phenylmethyl-4′-aza-5′-oxo-5′-(2″-butyl-3′″-hydroxyphenyl)pentyl] decahydroisoquinoline-3-N-t-butylcarboxamide] was tested. Which IC50 (HIV-1 protease; [2]) did it give?
A: Its IC50 is 16.3 nM.

Q: And the IC50 (HIV-1 protease; [3])?
A: Its IC50 is 13.7 nM.

Q: What about the IC50 [1, 6] of the same compound?
A: Its IC50 is 414 nM.

Q: What about the IC90 [1, 7] of the same compound?
A: Its IC90 is 886 nM.

Q: Which results are given for “[3S-(3R*,4aR*,8aR*,2′S*,3′S*)]-2-[2′-Hydroxy-3′-phenylmethyl-4′-aza-5′-oxo-5′-[2″-methyl-3″-N-(methylsulfonyl)amino-phenyl)]pentyl] decahydroisoguinoline-3-N-t-butylcarboxamide [Example 36]”?
A: Fluorescence Assay IC50 (HIV-1 protease; [4]): 0.062 µg/mL; Pandex IC50 ng/ml (HIV-1 protease; [5]): 93^e ng/ml

Q: For `Cc1c(N)cccc1C(=O)NC(Cc1ccccc1)C(O)CN1CC2CCCCC2CC1C(=O)NC(C)(C)C` (stereo not drawn) [Example 18, [3S-(3R*,4aR*,8aR*,2′S*,3′R*)]-2-[2′-Hydroxy-3′-phenylmethyl-4′-aza-5′-oxo-5′-(2″-methyl-3″-aminophenyl)pentyl] decahydroisoquinoline-3-N-t-butylcarboxamide], which IC50 (HIV-1 protease; [2]) is on record?
A: Its IC50 is 126 nM.

Q: And the IC50 (HIV-1 protease; [3])?
A: Its IC50 is 17.8 nM.

Q: What about the IC50 [1, 6] of the same compound?
A: Its IC50 is 739 nM.

Q: How did the IC50 (HIV-1 protease; [2]) turn out when `CC(C)(C)NC(=O)C1CC2CCCCC2CN1CC(O)C(Cc1ccccc1)NC(=O)c1cccnc1Cl` (stereo not drawn) [Example 2, [3S-(3R*,4aR*,8aR*,2′S*,3′R*)]-2-[2′-Hydroxy-3′-phenylmethyl-4′-aza-5′-oxo-5′-(2″-chloro-pyrid-3″-yl)pentyl] decahydroisoquinoline-3-N-t-butylcarboxamide] was run?
A: The IC50 was 2000 nM.

Q: What about the IC50 (HIV-1 protease; [3]) of the same compound?
A: Its IC50 is 963 nM.

Q: `Cc1c(O)cccc1C(=O)N[C@@H](Cc1ccccc1)[C@H](O)CN1CCN(Cc2cccnc2)C[C@H]1C(=O)NC(C)(C)C` [Example 26, [2S-(2R*,2′S*,3′R*)]-1-[2′-Hydroxy-3′-phenylmethyl-4′-aza-5′-oxo-5′-(2″-methyl-3″-hydroxyphenyl)pentyl]-4-(pyrid-3′″-ylmethyl) piperazine-2-N-t-butylcarboxamide] was tested. Which IC50 (HIV-1 protease; [2]) did it give?
A: The IC50 was 5.4 nM.

Q: What about the IC50 (HIV-1 protease; [3]) of the same compound?
A: The IC50 was 4.01 nM.

Q: What about the IC50 [1, 6] of the same compound?
A: Its IC50 is 56 nM.

Q: What about the IC90 [1, 7] of the same compound?
A: Its IC90 is 166 nM.

Q: `Cc1c(O)cccc1C(=O)NC(CSc1ccc2ccccc2c1)C(O)CN1CC2CCCCC2CC1C(=O)NC(C)(C)C` (stereo not drawn) [Example 24, [3S-(3R*,4aR*,8aR*,2′S*,3′R*)]-2-[2′-Hydroxy-3′-(naphth-2-ylthiomethyl)-4′-aza-5′-oxo-5′-(2″-methyl-3″-hydroxyphenyl)pentyl] decahydroisoquinoline-3-N-t-butylcarboxamide] was tested. Which “Pandex % at 20 ng/ml” value (HIV-1 protease; at 20 ng/ml) did it give?
A: The value was 84%/20^d.

Q: What about the IC50 (HIV-1 protease; [2]) of the same compound?
A: The IC50 was 9.39 nM.

Q: What about the IC50 (HIV-1 protease; [3]) of the same compound?
A: The IC50 was 4.53 nM.

Q: What about the IC50 [1, 6] of the same compound?
A: Its IC50 is 25 nM.

Q: With `CC(C)c1c(O)cccc1C(=O)NC(Cc1ccccc1)C(O)CN1CC2CCCCC2CC1C(=O)NC(C)(C)C` (stereo not drawn) [Example 20, [3S-(3R*,4aR*,8aR*,2′S*,3′R*)]-2-[2′-Hydroxy-3′-phenylmethyl-4′-aza-5′-oxo-5′-(2″-iospropyl-3″-hydroxyphenyl)pentyl] decahydroisoquinoline-3-N-t-butylcarboxamide] as the compound, how does the IC50 (HIV-1 protease; [2]) read?
A: Its IC50 is 11.5 nM.

Q: What about the IC50 (HIV-1 protease; [3]) of the same compound?
A: Its IC50 is 151 nM.

Q: And the IC50 [1, 6]?
A: The IC50 was 186 nM.

Q: And the IC90 [1, 7]?
A: Its IC90 is 671 nM.

Q: Which results are given for `Cc1c(O)cccc1C(=O)NC(Cc1ccccc1)C(O)CN1CC2CCCCC2CC1C(=O)NC(C)(C)C` (stereo not drawn) [Example 12, [3S-(3R*,4aR*,8aR*,2′S*,3′R*)]-2-[2′-Hydroxy-3′-phenylmethyl-4′-aza-5′-oxo-5′-(2″-methyl-3″-hydroxyphenyl)pentyl] decahydroisoquinoline-3-N-t-butylcarboxamide]?
A: IC50 (HIV-1 protease; [2]): 15.5 nM; IC50 (HIV-1 protease; [3]): 21.3 nM and 5.23 nM and 17.5 nM; IC50 ([1]; Human immunodeficiency virus 1, CCRF-CEM, read-out: Whole cell IC50 nM, CEM cells, tested as the mesylate salt): 35.7 nM; IC50 [1, 6]: 15 nM; IC90 ([1]; Human immunodeficiency virus 1, CCRF-CEM, read-out: Whole cell IC90 nM, CEM cells, tested as the mesylate salt): 91.8 nM; IC90 [1, 7]: 47.8 nM; IC50 [1, 8]: 22.3 nM; IC90 [1, 9]: 73.2 nM

Q: With `Cc1c(O)cccc1C(=O)N[C@@H](CSc1ccc2ccccc2c1)[C@H](O)CN1CCCC[C@H]1C(=O)NC(C)(C)C` [Example 25, [2S-(2R*,2′S*,3′S*)]-1-[2′-Hydroxy-3′-(naphth-2-ylthiomethyl-4′-aza-5′-oxo-5′-(2″-methyl-3″-hydroxyphenyl)pentyl]piperidine-2-N-t-butylcarboxamide] as the compound, how does the IC50 (HIV-1 protease; [2]) read?
A: Its IC50 is 5.68 nM.

Q: And the IC50 (HIV-1 protease; [3])?
A: The IC50 was 3.55 nM and 25.4 nM.

Q: For `CCc1c(O)cccc1C(=O)NC(Cc1ccccc1)C(O)CN1CC2CCCCC2CC1C(=O)NC(C)(C)C` (stereo not drawn) [Example 3, [3S-(3R*,4aR*,8aR*,2′S*,3′R*)]-2-[2′-Hydroxy-3′-phenylmethyl-4′-aza-5′-oxo-5′-(2″-ethyl-3″-hydroxyphenyl)pentyl] decahydroisoguinoline-3-N-t-butylcarboxamide], which IC50 (HIV-1 protease; [2]) is on record?
A: Its IC50 is 44 nM.

Q: And the IC50 (HIV-1 protease; [3])?
A: Its IC50 is 21.1 nM.

Q: And the IC50 [1, 6]?
A: Its IC50 is 96.1 nM.

Q: And the IC90 [1, 7]?
A: The IC90 was 286 nM.

Q: `CC(C)(C)NC(=O)C1CC2CCCCC2CN1CC(O)C(Cc1ccccc1)NC(=O)c1ccc[n+]([O-])c1` (stereo not drawn) [Example 5, [3S-(3R*,4aR*,8aR*,2′S*,3′R*)]-2-[2′-Hydroxy-3′-phenylmethyl-4′-aza-5′-oxo-5′-(pyrid-3″yl-N-oxidyl)pentyl] decahydroisoquinoline-3-N-t-butylcarboxamide] was tested. Which IC50 (HIV-1 protease; [2]) did it give?
A: Its IC50 is 5030 nM.

Q: What about the IC50 (HIV-1 protease; [3]) of the same compound?
A: The IC50 was 1910 nM.

Q: Which IC50 (HIV-1 protease; [2]) does the source give for `CC(C)(C)NC(=O)C1CC2CCCCC2CN1CC(O)C(Cc1ccccc1)NC(=O)c1cccc(O)c1Cl` (stereo not drawn) [Example 11, [3S-(3R*,4aR*,8aR*,2′S*,3′R*)]-2-[2′-Hydroxy-3′-phenylmethyl-4′-aza-5′-oxo-5′-(2″-chloro-3″-hydroxyphenyl)pentyl] decahydroisoquinoline-3-N-t-butylcarboxamide] here?
A: Its IC50 is 9.17 nM.

Q: What about the IC50 (HIV-1 protease; [3]) of the same compound?
A: The IC50 was 24.6 nM.

Q: What about the IC50 [1, 6] of the same compound?
A: Its IC50 is 114 nM.

Q: What does the source list for `Cc1c(O)cccc1C(=O)NC(Cc1ccccc1)C(O)CN1CC2CCCCC2CC1C(=O)NC(C)(C)C` (stereo not drawn) [Example 23, [3S-(3R*,4aR*,8aR*,2′S*,3′R*)]-2-[2′-Hydroxy-3′-phenylmethyl-4′-aza-5′-oxo-5′-(2″-methyl-3″-hydroxyphenyl)pentyl] decahydroisoquinoline-3-N-t-butylcarboxamide]?
A: Fluorescence Assay IC50 (HIV-1 protease; [4]): 0.00025 µg/mL; Pandex IC50 ng/ml (HIV-1 protease; [5]): 0.2^c ng/ml and 0.16^d ng/ml and 0.2^b ng/ml; IC50 [1, 8]: 2.39 nM; IC90 [1, 9]: 19 nM
